Drawing on PubChem BioAssay (NCI), this text covers TGI and GI50 for 20 compounds.

Several values for one entry are separate records, joined by “and”; a condition that tells them apart may be missing. Equal values may be shown once.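 Test compounds were applied to cells in 96-well plates for 48 hours at 5 doses. Abbreviation: GI50, concentration required for 50% inhibition of growth. TGI denotes the concentration required for complete inhibition of growth.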 Where only a bound is given, the exact number is not on record here.

One assay concerns HOP-62 NSCLC. The experiment in a line: NCI-60 cell line screen, 48 h.
`O=c1c2c([N+](=O)[O-])cccc2nc2[nH]c3ccccc3n12` returned a TGI greater than 75 µM.
Still for that read-out and setting: next, `Cc1cc(C)cc(Nc2cc(=O)[nH]c(=O)[nH]2)c1`: greater than 100 µM.
Same read-out and setting: next, `Cc1ccc(/C(O)=C/C(=O)C(=O)/C=C(\O)c2ccc(C)cc2C)c(C)c1`: 3.24 µM; `Cc1ccc([C@H]2CC(=O)C[C@H](c3ccc(C)cc3)C23C(=O)c2ccccc2C3=O)cc1`: 41.8 µM.
`O=c1c2ncn(COCCCl)c2n(-c2ccccc2)c(=S)n1-c1ccccc1` displayed a TGI greater than 100 µM.
Still for that read-out and setting: next, `O=C(O)c1ccc(S(=O)(=O)c2ccccc2[N+](=O)[O-])cc1`: greater than 10 µM; `COc1ccc(/C=N/N=C(\N)NO)c(O)c1`: greater than 10 µM; `CC1(CF)SCc2nc3ccccc3n21` (configuration not stated): greater than 100 µM.
On to `Nc1cccc(Nc2nc3ccccc3nc2NS(=O)(=O)c2ccccc2)c1`, for which the TGI was 96.2 µM.
Still for that read-out and setting: next, `CN(C)Cc1cc(C(=O)/C=C/c2ccccc2Cl)cc(CN(C)C)c1O`: 26.2 µM.
As to `COc1cc(CNc2ccc(SC)cc2)cc(OC)c1OC`, the GI50 was 12.1 µM and 4.68 µM; the TGI was > 100 µM and 61.1 µM.
`Nc1ccc(N=Nc2ccccc2)cc1` showed a TGI greater than 100 µM.
Still for that read-out and setting: next, `CN(NC(=O)c1cccs1)C1=NCCCN1`: greater than 100 µM.
For `Cc1ccn2c(=O)cc(-c3ccccc3)nc2c1`, the TGI is greater than 100 µM.
Same read-out and setting: the same measure for `CCn1nc2c3c(ncn3C(C)(C)O2)c1=O`: greater than 100 µM; for `O=C1CCCCC(=O)OC2(CCCCC2=O)CC1` (configuration not stated): greater than 100 µM.
Still for that read-out and setting: the same measure for `CCC(C#N)NC(=O)NC(C#N)CC` (configuration not stated): greater than 100 µM.
Same read-out and setting: the same measure for `CCOC(=O)/C=C(/C(=O)OCC)n1ccc(N)nc1=O`: greater than 100 µM; for `C[C@H](N)C(=O)Nc1ccc(-c2nc3ccccc3s2)cc1`: 72.9 µM.
In turn, `CN(O)C(=O)c1cccc(Cl)c1` had a TGI greater than 100 µM.

The subject of the next assay is PC-3 prostate. The experiment in a line: NCI-60 cell line screen, 48 h.
As to `O=c1c2c([N+](=O)[O-])cccc2nc2[nH]c3ccccc3n12`, the TGI is greater than 75 µM.
The same measure, in the same setting: next, `Cc1cc(C)cc(Nc2cc(=O)[nH]c(=O)[nH]2)c1`: greater than 100 µM; `Cc1ccc(/C(O)=C/C(=O)C(=O)/C=C(\O)c2ccc(C)cc2C)c(C)c1`: 5.64 µM; `Cc1ccc([C@H]2CC(=O)C[C@H](c3ccc(C)cc3)C23C(=O)c2ccccc2C3=O)cc1`: 84.5 µM.
For `O=c1c2ncn(COCCCl)c2n(-c2ccccc2)c(=S)n1-c1ccccc1`, the TGI was greater than 100 µM.
As to `O=C(O)c1ccc(S(=O)(=O)c2ccccc2[N+](=O)[O-])cc1`, the TGI is greater than 10 µM.
Compound `COc1ccc(/C=N/N=C(\N)NO)c(O)c1` showed a TGI greater than 10 µM.
Still for that read-out and setting: next, `CC1(CF)SCc2nc3ccccc3n21` (configuration not stated): greater than 100 µM.
The same measure, in the same setting: the same measure for `Nc1cccc(Nc2nc3ccccc3nc2NS(=O)(=O)c2ccccc2)c1`: 49.7 µM; for `CN(C)Cc1cc(C(=O)/C=C/c2ccccc2Cl)cc(CN(C)C)c1O`: 29.2 µM.
Same read-out and setting: next, `COc1cc(CNc2ccc(SC)cc2)cc(OC)c1OC`: > 100 µM and 47.7 µM; `Nc1ccc(N=Nc2ccccc2)cc1`: greater than 100 µM.
Take `CN(NC(=O)c1cccs1)C1=NCCCN1`: the TGI was greater than 100 µM.
On the same count and under the same terms, next, `Cc1ccn2c(=O)cc(-c3ccccc3)nc2c1`: greater than 100 µM; `CCn1nc2c3c(ncn3C(C)(C)O2)c1=O`: greater than 100 µM; `O=C1CCCCC(=O)OC2(CCCCC2=O)CC1` (configuration not stated): greater than 100 µM.
Same read-out and setting: the same measure for `CCC(C#N)NC(=O)NC(C#N)CC` (configuration not stated): greater than 100 µM.
The same measure, in the same setting: the same measure for `CCOC(=O)/C=C(/C(=O)OCC)n1ccc(N)nc1=O`: greater than 100 µM.
The compound `C[C@H](N)C(=O)Nc1ccc(-c2nc3ccccc3s2)cc1` registered a TGI of 63.7 µM.
With `CN(O)C(=O)c1cccc(Cl)c1`, the TGI is greater than 100 µM.

The subject of another assay is NCI-H460 lung. Kind of assay: NCI-60 cell line screen, 48 h.
Consider `O=c1c2c([N+](=O)[O-])cccc2nc2[nH]c3ccccc3n12`, for which the TGI was greater than 75 µM.
The same measure, in the same setting: the same measure for `Cc1cc(C)cc(Nc2cc(=O)[nH]c(=O)[nH]2)c1`: greater than 100 µM; for `Cc1ccc(/C(O)=C/C(=O)C(=O)/C=C(\O)c2ccc(C)cc2C)c(C)c1`: 3.47 µM; for `Cc1ccc([C@H]2CC(=O)C[C@H](c3ccc(C)cc3)C23C(=O)c2ccccc2C3=O)cc1`: greater than 100 µM.
Still for that read-out and setting: next, `O=c1c2ncn(COCCCl)c2n(-c2ccccc2)c(=S)n1-c1ccccc1`: greater than 100 µM; `O=C(O)c1ccc(S(=O)(=O)c2ccccc2[N+](=O)[O-])cc1`: greater than 10 µM.
In turn, `COc1ccc(/C=N/N=C(\N)NO)c(O)c1` had a TGI greater than 10 µM.
As to `CC1(CF)SCc2nc3ccccc3n21` (configuration not stated), the TGI was greater than 100 µM.
The same measure, in the same setting: next, `Nc1cccc(Nc2nc3ccccc3nc2NS(=O)(=O)c2ccccc2)c1`: 71.1 µM.
Compound `CN(C)Cc1cc(C(=O)/C=C/c2ccccc2Cl)cc(CN(C)C)c1O` returned a TGI of 18.5 µM.
The same measure, in the same setting: the same measure for `COc1cc(CNc2ccc(SC)cc2)cc(OC)c1OC`: greater than 100 µM; for `Nc1ccc(N=Nc2ccccc2)cc1`: greater than 100 µM.
In the case of `CN(NC(=O)c1cccs1)C1=NCCCN1`, the TGI was greater than 100 µM.
On the same count and under the same terms, the same measure for `Cc1ccn2c(=O)cc(-c3ccccc3)nc2c1`: greater than 100 µM; for `CCn1nc2c3c(ncn3C(C)(C)O2)c1=O`: greater than 100 µM.
In the case of `O=C1CCCCC(=O)OC2(CCCCC2=O)CC1` (configuration not stated), the TGI is greater than 100 µM.
Same read-out and setting: the same measure for `CCC(C#N)NC(=O)NC(C#N)CC` (configuration not stated): greater than 100 µM; for `CCOC(=O)/C=C(/C(=O)OCC)n1ccc(N)nc1=O`: greater than 100 µM; for `C[C@H](N)C(=O)Nc1ccc(-c2nc3ccccc3s2)cc1`: 34.8 µM.
On the same count and under the same terms, next, `CN(O)C(=O)c1cccc(Cl)c1`: greater than 100 µM.

The test system of the next assay is KM12 colon. The experiment in a line: NCI-60 cell line screen, 48 h.
Regarding `O=c1c2c([N+](=O)[O-])cccc2nc2[nH]c3ccccc3n12`, the TGI was greater than 75 µM.
On the same count and under the same terms, the same measure for `Cc1cc(C)cc(Nc2cc(=O)[nH]c(=O)[nH]2)c1`: greater than 100 µM; for `Cc1ccc(/C(O)=C/C(=O)C(=O)/C=C(\O)c2ccc(C)cc2C)c(C)c1`: 3.44 µM; for `Cc1ccc([C@H]2CC(=O)C[C@H](c3ccc(C)cc3)C23C(=O)c2ccccc2C3=O)cc1`: greater than 100 µM.
Same read-out and setting: next, `O=c1c2ncn(COCCCl)c2n(-c2ccccc2)c(=S)n1-c1ccccc1`: greater than 100 µM.
Still for that read-out and setting: the same measure for `O=C(O)c1ccc(S(=O)(=O)c2ccccc2[N+](=O)[O-])cc1`: greater than 10 µM; for `COc1ccc(/C=N/N=C(\N)NO)c(O)c1`: greater than 10 µM.
As for `CC1(CF)SCc2nc3ccccc3n21` (configuration not stated), the TGI was greater than 100 µM.
Turning to `Nc1cccc(Nc2nc3ccccc3nc2NS(=O)(=O)c2ccccc2)c1`, the TGI was found to be 41.7 µM.
Turning to `CN(C)Cc1cc(C(=O)/C=C/c2ccccc2Cl)cc(CN(C)C)c1O`, the TGI stood at 20.3 µM.
On to `COc1cc(CNc2ccc(SC)cc2)cc(OC)c1OC`, for which the GI50 was 4.44 µM and 2.21 µM; the TGI is > 62.7 µM and 20.7 µM.
`Nc1ccc(N=Nc2ccccc2)cc1` returned a TGI greater than 100 µM.
Consider `CN(NC(=O)c1cccs1)C1=NCCCN1`, for which the TGI is greater than 100 µM.
Same read-out and setting: the same measure for `Cc1ccn2c(=O)cc(-c3ccccc3)nc2c1`: greater than 100 µM.
Still for that read-out and setting: the same measure for `CCn1nc2c3c(ncn3C(C)(C)O2)c1=O`: greater than 100 µM; for `O=C1CCCCC(=O)OC2(CCCCC2=O)CC1` (configuration not stated): greater than 100 µM.
Still for that read-out and setting: the same measure for `CCC(C#N)NC(=O)NC(C#N)CC` (configuration not stated): greater than 100 µM.
Compound `CCOC(=O)/C=C(/C(=O)OCC)n1ccc(N)nc1=O` yielded a TGI greater than 100 µM.
Same read-out and setting: the same measure for `C[C@H](N)C(=O)Nc1ccc(-c2nc3ccccc3s2)cc1`: 31.1 µM; for `CN(O)C(=O)c1cccc(Cl)c1`: greater than 100 µM.

For another assay, the system named is BT-549 breast. The experiment in a line: NCI-60 cell line screen, 48 h.
Take `O=c1c2c([N+](=O)[O-])cccc2nc2[nH]c3ccccc3n12`: the TGI came out at 51.1 µM.
The same measure, in the same setting: next, `Cc1cc(C)cc(Nc2cc(=O)[nH]c(=O)[nH]2)c1`: greater than 100 µM; `Cc1ccc(/C(O)=C/C(=O)C(=O)/C=C(\O)c2ccc(C)cc2C)c(C)c1`: 3.23 µM.
The compound `Cc1ccc([C@H]2CC(=O)C[C@H](c3ccc(C)cc3)C23C(=O)c2ccccc2C3=O)cc1` returned a TGI greater than 100 µM.
Still for that read-out and setting: next, `O=c1c2ncn(COCCCl)c2n(-c2ccccc2)c(=S)n1-c1ccccc1`: greater than 100 µM; `O=C(O)c1ccc(S(=O)(=O)c2ccccc2[N+](=O)[O-])cc1`: greater than 10 µM.
Same read-out and setting: next, `COc1ccc(/C=N/N=C(\N)NO)c(O)c1`: greater than 10 µM; `CC1(CF)SCc2nc3ccccc3n21` (configuration not stated): greater than 100 µM; `Nc1cccc(Nc2nc3ccccc3nc2NS(=O)(=O)c2ccccc2)c1`: 44.9 µM.
On the same count and under the same terms, next, `CN(C)Cc1cc(C(=O)/C=C/c2ccccc2Cl)cc(CN(C)C)c1O`: 20 µM.
With `COc1cc(CNc2ccc(SC)cc2)cc(OC)c1OC`, the GI50 is 9.13 µM and the TGI is greater than 100 µM.
In the case of `Nc1ccc(N=Nc2ccccc2)cc1`, the TGI was greater than 100 µM.
Same read-out and setting: next, `CN(NC(=O)c1cccs1)C1=NCCCN1`: greater than 100 µM; `Cc1ccn2c(=O)cc(-c3ccccc3)nc2c1`: greater than 100 µM.
In turn, `CCn1nc2c3c(ncn3C(C)(C)O2)c1=O` registered a TGI greater than 100 µM.
Compound `O=C1CCCCC(=O)OC2(CCCCC2=O)CC1` (configuration not stated) displayed a TGI greater than 100 µM.
Same read-out and setting: next, `CCC(C#N)NC(=O)NC(C#N)CC` (configuration not stated): greater than 100 µM; `CCOC(=O)/C=C(/C(=O)OCC)n1ccc(N)nc1=O`: greater than 100 µM; `C[C@H](N)C(=O)Nc1ccc(-c2nc3ccccc3s2)cc1`: greater than 100 µM.
